In patent US9963461B2, “Phillygenin ibuprofen ester, preparation method therefor, and application thereof” (priority 2014, dated 2018):
Marks after values point to notes of the source that are not given here.

Columns and labels:
[1] = tested on: rabbit fever induced by typhoid and paratyphoid vaccine; assay: Rabbit fever induced by typhoid and paratyphoid vaccine; type: in vivo, Japanese white rabbits; settings: 300 mg/kg
Protocol: Japanese male big-ear white rabbits, weighing 1.5-2.0 kg. Before the test, WSC-411P portable digital thermometer was used to measure the normal rectal temperature twice (with certain interval for each time), and the average value was taken as the normal body temperature. Then 48 Japanese big-ear white rabbits with body temperature of 38-39.6° C. were selected and randomly divided into 8 groups by weight, namely: the blank control (normal saline) group, the model control (0.5% carboxymethylcellulose) group, the ibuprofen group (300 mg/kg), the phillygenin group (10 mg/kg), the 1.25, 2.5, and 5 mg/kg phillygenin ibuprofen ester groups and the positive drug paracetamol (50 mg/kg) group. The rabbits were fixed in a fixator. The blank control group was intravenously injected with normal saline of 1 ml/kg via the ear margin; The model control group and the drug groups were intravenously injected with typhoid and paratyphoid vaccines of 0.8 ml/kg via the ear margin. When the body temperature rise of the rabbits was greater than 1° C. (requiring about 1-1.5 h, which was restricted to 1 h in this test), the blank control group and the model group were administered intragastrically with 0.5% carboxymethycellulose of 1 ml/kg, and the drug groups were administered intragastrically with phillygenin ibuprofen ester and paracetamol. […]

[2] = tested on: sweat secretion of rat paw part; assay: Sweat secretion of rat paw part (coloring method); type: in vivo, Wistar rats; settings: 300.0 mg/kg intragastric; for Animal number of sweat points of level +: + = sweat area below about 10%; for Animal number of sweat points of level ++: ++ = sweat area about 11-40%; for Animal number of sweat points of level +++: +++ = sweat area about 41-70%; for Animal number of sweat points of level ++++: ++++ = sweat area over 71%; for Animal number of sweat points of level −: − = no sweat point
Excerpt: This test was designed to observe the change of sweat secretion based on the mechanism that sweat gland is distributed on the rat paw pads, and iodine and starch can have purple reaction when encountered with sweat. In the test, 350 Wistar rats were selected, with equal male and female number, weighing 120-150 g. […] The rats were placed in a self-made rat fixation bag, with the double hind limbs exposed. The dirts on the right paw was gently scrubbed clean with the cotton swab dipped with anhydrous ethanol. Besides that subcutaneous injection was used for the pilocarpine solution, intragastric administration was used for all the other groups. […] When the test was complete, statistical process was carried out according to the rank-sum test with two-sample comparison, in order to compare the difference between the groups.

[3] = tested on: mice pain induced by acetic acid; assay: Analgesic test, mice writhing induced by acetic acid; type: in vivo, Kunming mice; settings: 300 mg/kg intragastric; within 15 min after 0.7% acetic acid
Protocol: 72 Kunming mice were randomly divided into 6 groups, with 12 mice for each group. (1) the blank normal control group (i.e. saline group, […]); (2) positive drug aspirin group (200 mg/kg); (3) ibuprofen group (300 mg/kg); (4) high dose group of phillygenin ibuprofen ester (300 mg/kg); (5) medium dose group of phillygenin ibuprofen ester (150 mg/kg); (6) low dose group of phillygenin ibuprofen ester (75 mg/kg). […] The number of mice writhings within 15 min after administration was recorded. The number of writhings was taken as the evaluation index to evaluate the analgesic effect.

[4] = time after administration (min) 30
[5] = time after administration (min) 60
[6] = time after administration (min) 90
[7] = time after administration (min) 120
[8] = time after administration (min) 180
[9] = after coating B liquid for 1 minute
[10] = after coating B liquid for 5 minutes
[11] = after coating B liquid for 10 minutes
[12] = after coating B liquid for 15 minutes (Table 2-4)
[13] = after coating B liquid for 15 minutes (Table 2-5)

SMILES: CC(C)Cc1ccc(C(C)C(=O)O)cc1 (stereo not drawn) [Ibuprofen]
- Body temperature (° C.) [1, 4]: 40.74 ± 0.52 °C
- antipyretic percentage (%) [1, 4]: −0.90 ± 0.41 %
- Body temperature (° C.) [1, 5]: 40.56 ± 0.40 °C
- antipyretic percentage (%) [1, 5]: −1.35 ± 0.11 %
- Body temperature (° C.) [1, 6]: 40.07 ± 0.44 °C
- antipyretic percentage (%) [1, 6]: −2.52 ± 0.13 %
- Body temperature (° C.) [1, 7]: 39.88 ± 0.55 °C
- antipyretic percentage (%) [1, 7]: −3.00 ± 0.23 %
- Body temperature (° C.) [1, 8]: 39.77 ± 0.53 °C
- antipyretic percentage (%) [1, 8]: −3.25 ± 0.29 %
- Animal number of sweat points of level + [2, 9]: 1
- Animal number of sweat points of level ++ [2, 9]: 3
- Animal number of sweat points of level +++ [2, 9]: 1
- Animal number of sweat points of level ++++ [2, 9]: 5
- Animal number of sweat points of level − [2, 9]: 0
- Animal number of sweat points of level + [2, 10]: 2
- Animal number of sweat points of level ++ [2, 10]: 1
- Animal number of sweat points of level +++ [2, 10]: 2
- Animal number of sweat points of level ++++ [2, 10]: 5
- Animal number of sweat points of level − [2, 10]: 0
- Animal number of sweat points of level + [2, 11]: 1
- Animal number of sweat points of level ++ [2, 11]: 2
- Animal number of sweat points of level +++ [2, 11]: 2
- Animal number of sweat points of level ++++ [2, 11]: 5
- Animal number of sweat points of level − [2, 11]: 0
- Animal number of sweat points of level + [2, 12]: 1
- Animal number of sweat points of level ++ [2, 12]: 2
- Animal number of sweat points of level +++ [2, 12]: 2
- Animal number of sweat points of level ++++ [2, 12]: 5
- Animal number of sweat points of level − [2, 12]: 0
- Animal number of sweat points of level + [2, 13]: 1
- Animal number of sweat points of level ++ [2, 13]: 2
- Animal number of sweat points of level +++ [2, 13]: 2
- Animal number of sweat points of level ++++ [2, 13]: 5
- Animal number of sweat points of level − [2, 13]: 0
- Writhing times [3]: 9.7*
